The values below come from ChEMBL document CHEMBL1121919, “13N-labeled L-amino acids for in vivo assessment of local myocardial metabolism” (J Med Chem, 1981).

The species entered for data set [1] is Canis familiaris. The experiment in a line: Ischemic myocardial half-life measured after intracoronary injection of [13N]-labeled amino acid in dogs (control - 15.9+/-0.2). In kind it is ADME, organism-based, Canis lupus familiaris, Myocardium. The following applies: dog, in vivo, other.
The species entered for data set [2] is Canis familiaris. The experiment in a line: Ischemic myocardial residue fraction of [13N]-labeled amino acid was observed with a single pass uptake technique in open-chest instrumented dogs (control - 17.3+/-6.1). In kind it is functional, Canis lupus familiaris.
The species entered for data set [3] is Canis familiaris. Briefly: Ischemic myocardial half-life measured after intracoronary injection of [13N]-labeled amino acid in dogs (control - 88+/-2). In kind it is ADME, organism-based, Canis lupus familiaris, Myocardium. To be noted: dog, in vivo, other.
Data set [4] is filed under the species Canis familiaris. The experiment in a line: Ischemic myocardial residue fraction of [13N]-labeled amino acid was observed with a single pass uptake technique in open-chest instrumented dogs (control - 18.5+/-2.1). The format is functional, Canis lupus familiaris.
The species named for data set [5] is Canis familiaris. The experiment in a line: Ischemic myocardial residue fraction of [13N]-labeled amino acid was observed with a single pass uptake technique in open-chest instrumented dogs (control - 14+/-4.2). In kind it is functional, Canis lupus familiaris.
Data set [6] is filed under the species Canis familiaris. The experiment in a line: Ischemic myocardial half-life measured after intracoronary injection of [13N]-labeled amino acid in dogs (control - 147+/-12). The format is ADME, organism-based, Canis lupus familiaris. To be noted: dog, in vivo, other.
For data set [7], the species on record is Canis familiaris. The experiment in a line: Ischemic myocardial residue fraction of [13N]-labeled amino acid was observed with a single pass uptake technique in open-chest instrumented dogs (control - 8.1+/-3.1). The format is functional, Canis lupus familiaris.
For data set [8], the species on record is Canis familiaris. Briefly: Ischemic myocardial half-life measured after intracoronary injection of [13N]-labeled amino acid in dogs (control - 114.1+/-26.5). The format is ADME, organism-based, Canis lupus familiaris, Myocardium. The following applies: dog, in vivo, other.

In the data set listed under Canis familiaris [1], `NC(=O)CC[C@H](N)C(=O)O` [GLUTAMINE] displayed a T1/2 of 0.292 h. In addition, the Residue fraction in the data set listed under Canis familiaris [2] worked out at 20.5%.
Turning to `C[C@H](N)C(=O)O` [ALANINE], the T1/2 in the data set filed under Canis familiaris [3] came to 1.29 h. Also, in the data set listed under Canis familiaris [4], the Residue fraction turned out to be 19.5%.
In the case of `N[C@@H](CC(=O)O)C(=O)O` [ASPARTIC ACID], the Residue fraction in the data set filed under Canis familiaris [5] came to 17%. This compound registered a T1/2 in the data set filed under Canis familiaris [6] of 2.87 h.
In the data set listed under Canis familiaris [7], `N[C@@H](CCC(=O)O)C(=O)O` [GLUTAMIC ACID] registered a Residue fraction of 11.5%. The same compound showed a T1/2 in the data set listed under Canis familiaris [8] of 1.35 h.
